Here are results for 6 compounds from patent US20240293420A1, “PHARMACEUTICAL COMPOSITION, PREPARATION, AND PREPARATION METHOD THEREFOR AND USE THEREOF” (WUHAN LL SCIENCE AND TECHNOLOGY DEVELOPMENT CO., LTD., priority 2021, published 2024).

Each structure is given as a SMILES string. “Also recorded” adds a separate entry of the source. Bounds are passed on as bounds.

Data set [1] in a line: Crystal form transformation under humidity / drying (XRPD). The data set is classed as physicochemical. The conditions noted are these: humidity or drying as stated in the value. The source says:
Crystal form I can be obtained by the preparation method in Example 3. […] (FIG. 29). Combined with the DVS test results (FIG. 30), it can be seen that the mutual transformation between crystal forms I and IV is reversible.
Crystal form IV is a hygroscopic product of crystal form I under high humidity environment, and can be obtained by slurrying crystal form I or crystal form V in a mixed solvent of water/acetone with a water content of 50% to 95%.
Crystal form VI was obtained by slurrying crystal form I or crystal form V at 60° C. in a mixed solvent of water/acetone with a water content of 10% (volume ratio) at 60° C.
Crystal form VIII is a hydrate, but the hydrate is unstable.

The conditions of data set [2]: phase II clinical trial; cited from earlier work.
Data set [3] can be described thus: Dynamic vapor sorption (DVS) test. Type of data set: physicochemical. The conditions noted are these: for DVS (wt %, 80% RH) / DVS (wt %, 90% RH): 25° C.
Data set [4] in a line: Pharmacokinetic experiments in Beagles. The note with it: Beagle, male, PO, 10 mg/kg, plasma. The data set is classed as in vivo. The procedure: The present disclosure preferred crystal forms I, III, and V of the compound in the above examples for pharmacokinetic experiments in Beagles, and the relevant experiments are as follows:
Animal: 9 Beagles, male, divided into three groups with 3 in each group, weight ranging from 10 to 13 kg (source & certificate number: Beijing Marshall Biotechnology Co., Ltd., No. 1103182011000161)
Administration mode and dosage: PO: 10 mg/kg
Preparation: 0.5% CMC-Na was used as the solvent, and 400 mg of each of the three different crystal forms of compound A were weighed and added to the corresponding 79 mL of solvent, respectively. The mixture was subjected to ultrasonication for 20 minutes, added with a stirrer, and mixed thoroughly for 3 hours (the storage period from compound preparation to animal administration at room temperature was less than 6 hours). After the drug solution became a homogeneous and fine suspension, which was observed by the naked eye, the solvent was gradually added until the specified volume reached the target concentration. The preparation was stirred for 10 minutes at room temperature before administration, and stirred continuously during administration.
Time points for sampling: the time points for blood sampling in the PO group were 0.167, 0.5, 1, 2, 4, 6, 8, and 24 hours.
Animals in the PO group were fasted overnight except for free access to water before administration, and resumed food supply 4 hours after administration.
After Beagles in the […] were administered, blood was collected from Beagles by jugular vein puncture according to the time points for sampling. About 1.0 mL of blood was collected at each time point and transferred to an anticoagulant EP tube (containing 10 μL of EDTA-K2, 375 mg/mL). The tube was gently inverted three times, stored in an ice box (no more than 30 minutes), and centrifuged at 3200 g for 10 minutes at 4° C. The plasma was transferred to an ultra-low temperature refrigerator and stored until detection.
Sample pretreatment process: 40 μL of sample was taken, and 160 μL of acetonitrile solution containing 0.1% FA and 200 ng/mL of mixed standard solution was added to precipitate the protein. The mixture was vortexed and mixed well, and the sample was centrifuged in a 4° C. centrifuge at 13000 pm for 10 minutes. 100 μL of the supernatant was transferred to another 96 deep well plate, then 100 μL of methanol:water (1:3, v:v) solution containing 0.1% FA was added thereto, and the mixture was shaken and mixed for 10 minutes.
• Ion source: ion electrospray (ESI) • Ionization mode: positive ion mode (Positive) • Detection mode (mode): multiple reaction monitoring (MRM) • Ion spray voltage: 5500 V • Ion spray temperature (turbo ion spray temp): 550° C. • Curtain gas type: nitrogen setting: 35 • Collision cell gas type (CAD gas type): nitrogen setting: medium • Nebulizing gas type (gas 1): nitrogen setting: 55.00 • Auxiliary gas type (gas 2): nitrogen setting: 55.00
• Chromatographic column: poroshell 120 EC-C18 (4.6×50 mm, 2.7 μm) • Mobile phase A: 0.1% formic acid aqueous solution • Mobile phase B: a solution of 0.1% formic acid in methanol • Auto sampler wash solution (rinse port wash solution): 50% methanol • Column temperature: 40° C. • Flow rate: 0.55 mL/min • Auto sampler temperature (sample tray temp): 10° C. • Injection volume: 3 μL • Lift of presser foot (needle stroke): 49 mm • Auto sampler rinse setting (rinse pump setting): rinse port only • Auto sampler rinse mode (rinse mode): before aspiration • Auto sampler rinse volume for needle (rinse volume): 500 μL • Dip time when rinsing the injection needle (rinse dip time): 2 seconds
The data would be analyzed using WinNonlin (version 5.2.1 Pharsight, Mountain View, CA) through a non-compartmental model to obtain PK parameters (selecting Cmax, Tmax, AUClast, T1/2, and other parameters according to different routes of administration).

A short description of data set [5]: Solubility tests in biological media of SGF, FaSSIF and FeSSIF. Type of data set: physicochemical. The procedure:
The instrument used for liquid chromatography analysis was Agilent HPLC 1260 series, and the analytical method is shown in the table below.
The results of solubility tests of crystal forms I, III, and V in biological media of SGF, FaSSIF, and FeSSF are as shown in Table E and FIG. 43. There was little difference in the solubility of the above three crystal forms in different biological media, and the solubility in SGF was higher than 5 mg/mL.

A short description of data set [6]: Physical and chemical stability of crystal forms at 60° C. (closed) and 40° C./75% RH (open). Type of data set: physicochemical. The protocol:
The physical and chemical stability of crystal forms I, III, and V at 60° C. (closed) and 40° C./75% RH (open) for 7 days were investigated respectively.
(closed) and 40° C./75% RH (open) for 3 months were investigated.

What is called Cmax is the maximum level reached in the sampled fluid or tissue. Usually Tmax stands for the time from dosing to the highest level. By solubility is commonly meant the concentration that dissolves in the medium under given conditions.

With `COC(=O)N1CCO[C@@H](Cc2c(-c3c(F)cc(S(N)(=O)=O)cc3F)nc3cc(Cl)ccn23)C1` [Crystal form IV, methyl (S)-2-((7-chloro-2-(2,6-difluoro-4-sulfamoylphenyl)imidazo[1,2-a]pyridin-3-yl)methyl)morpholine-4-carboxylate], the crystal form transformation entry in data set [1] was “transformed into crystal form I as an anhydrous crystal form after vacuum drying and dehydration”.
Turning to `COc1cc(C(C)C)c(Oc2cnc(N)nc2N)cc1S(N)(=O)=O` [AF-219], in data set [2], the dysgeusia entry is on record as “serious dysgeusia problem” and the “efficacy on refractory cough” value is on record as “good efficacy”.
For `COC(=O)N1CCO[C@@H](Cc2c(-c3c(F)cc(S(N)(=O)=O)cc3F)nc3cc(Cl)ccn23)C1` [Crystal form I, methyl (S)-2-((7-chloro-2-(2,6-difluoro-4-sulfamoylphenyl)imidazo[1,2-a]pyridin-3-yl)methyl)morpholine-4-carboxylate], the “XRPD before and after the DVS test” value in data set [3] is “remained unchanged”. Moreover, in data set [3] (80% RH), the “DVS (wt %, 80% RH)” value stood at 6.8 wt %. The “DVS (wt %, 90% RH)” value in data set [3] was 6.9 wt %. The “hygroscopicity (DVS)” value in data set [3] (80% RH) is given as 6.8%. The “AUClast” value in data set [4] came to 7.926 ± 6.235 µg·h/mL. Moreover, the “Cmax” value in data set [4] is 0.991 ± 0.8 µg/mL. The “T1/2” value in data set [4] was 11.9 ± 3.65 h. The “Tmax” value in data set [4] was 2.00 ± 0.00 h. Moreover, in data set [1], the crystal form transformation entry was “absorbed moisture under high humidity environment and was transformed into crystal form IV as a hydrate; also recorded: easy to transform into crystal form IV when RH >40%”. Also, the “XRPD of remaining solid” value in data set [5] (FaSSIF, 0.5 h) is reported as “transformed into crystal form IV as a hydrate”; in data set [5] (FeSSIF, 0.5 h), “transformed into crystal form IV as a hydrate”. Further, the pH in data set [5] (FaSSIF, 0.5 h) was 6.4; in data set [5] (FaSSIF, 2 h), 6.4; in data set [5] (FaSSIF, 24 h), 6.4; in data set [5] (FeSSIF, 0.5 h) it was 5.0; in data set [5] (FeSSIF, 2 h) it was 5.1; in data set [5] (FeSSIF, 24 h) it was 5.1. In addition, the pH in data set [5] (SGF, 0.5 h) came to 1.2; in data set [5] (SGF, 2 h), 1.3; in data set [5] (SGF, 24 h) it was 1.2. Also, the “Purity - 7 days (peak area %)” value in data set [6] (40° C./75% RH (open), 7 days) stood at 99.38 peak area %; in data set [6] (60° C. (closed), 7 days) it was 99.37 peak area %. Also, the XRPD result in data set [6] (40° C./75% RH (open), 7 days) is listed as “transformed into crystal form IV as a hydrate”. For the same compound, the “Initial purity (peak area %)” value in data set [6] is given as 99.38 peak area %.
For `COC(=O)N1CCO[C@@H](Cc2c(-c3c(F)cc(S(N)(=O)=O)cc3F)nc3cc(Cl)ccn23)C1` [Crystal form V, methyl (S)-2-((7-chloro-2-(2,6-difluoro-4-sulfamoylphenyl)imidazo[1,2-a]pyridin-3-yl)methyl)morpholine-4-carboxylate], the “DVS (wt %, 80% RH)” value in data set [3] (80% RH) is reported as 0.7 wt %. Also, the “DVS (wt %, 90% RH)” value in data set [3] is recorded as 0.9 wt %. For the same compound, in data set [4], the “AUClast” value came out at 2.637 ± 1.75 µg·h/mL. Also, the “Cmax” value in data set [4] was found to be 0.17 ± 0.0994 µg/mL. In addition, in data set [4], the “T1/2” value is 44.4 ± 28.9 h. For the same compound, the “Tmax” value in data set [4] turned out to be 4.67 ± 0.67 h. Also, the “XRPD of remaining solid” value is reported as “Unchanged” in data set [5] (FaSSIF, 0.5 h); “Unchanged” in data set [5] (FaSSIF, 2 h); “Unchanged” in data set [5] (FaSSIF, 24 h); “Unchanged” in data set [5] (FeSSIF, 0.5 h); “Unchanged” in data set [5] (FeSSIF, 2 h); “Unchanged” in data set [5] (FeSSIF, 24 h). Further, the pH in data set [5] (FaSSIF, 0.5 h) came to 6.4; in data set [5] (FaSSIF, 2 h), 6.4; in data set [5] (FaSSIF, 24 h) it was 6.4; in data set [5] (FeSSIF, 0.5 h) it was 5.0; in data set [5] (FeSSIF, 2 h), 5.0; in data set [5] (FeSSIF, 24 h), 5.1. Further, the pH in data set [5] (SGF, 0.5 h) stood at 1.2; in data set [5] (SGF, 2 h), 1.1; in data set [5] (SGF, 24 h), 1.2. In data set [5] (pH 1.1, simulated gastric fluid, thermodynamic from solid, SGF, 2 h, visual observation), this compound yielded a solubility at 2 h greater than 5 mg/mL. The “Purity - 7 days (peak area %)” value in data set [6] (40° C./75% RH (open), 7 days) is on record as 99.28 peak area %; in data set [6] (60° C. (closed), 7 days), 99.30 peak area %. In data set [6], the “Initial purity (peak area %)” value was 99.29 peak area %.
`COC(=O)N1CCO[C@@H](Cc2c(-c3c(F)cc(S(N)(=O)=O)cc3F)nc3cc(Cl)ccn23)C1` [Crystal form VI, methyl (S)-2-((7-chloro-2-(2,6-difluoro-4-sulfamoylphenyl)imidazo[1,2-a]pyridin-3-yl)methyl)morpholine-4-carboxylate]: the crystal form transformation result in data set [1] was “transformed into crystal form I after being placed under ambient humidity (35% RH) for a few minutes”.
On to `COC(=O)N1CCO[C@@H](Cc2c(-c3c(F)cc(S(N)(=O)=O)cc3F)nc3cc(Cl)ccn23)C1` [Crystal form VIII, methyl (S)-2-((7-chloro-2-(2,6-difluoro-4-sulfamoylphenyl)imidazo[1,2-a]pyridin-3-yl)methyl)morpholine-4-carboxylate], for which the crystal form transformation entry in data set [1] is recorded as “transformed into crystal form I”.
